The values below come from patent US11597724B2, “Herbicidally active 3-phenylisoxazoline-5-carboxamides of tetrahydro and dihydrofuran carboxylic acids and esters” (Bayer Aktiengesellschaft, priority 2017, dated 2023).

Assay type in all cases: in vivo
The subject of one test is Avena fatua. The experiment in a line: Pre-emergence herbicidal activity against AVEFA. To be noted: dosage 80 g/ha. The essentials:
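Seeds sown in pots, covered with soil; WP or EC formulations sprayed onto soil surface as aqueous suspension/emulsion with 0.5% additive at 600 l/ha water. Pots kept in greenhouse ~3 weeks, then effect scored visually versus untreated controls as % (100% = plants dead, 0% = like control).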

Test [1] concerns Stellaria media. The experiment in a line: Pre-emergence herbicidal activity against STEME. The conditions noted are these: dosage 80 g/ha. The essentials: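 Weed seeds sown in pots and covered with soil, then WP or EC formulations sprayed onto the soil surface as aqueous suspension/emulsion with 0.5% additive at 600 l/ha water. Kept in greenhouse; visual percent effect versus untreated controls scored after about 3 weeks (100% = plants dead).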

In a further test the test system is Alopecurus myosuroides. Briefly: Post-emergence herbicidal activity against ALOMY. To be noted: dosage 320 g/ha, rated about 3 weeks after treatment. The essentials: (§1)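 Greenhouse-grown plants treated at one-leaf stage, 2 to 3 weeks after sowing, with WP or EC formulations sprayed as aqueous suspension/emulsion plus 0.5% additive at 600 l/ha. Activity rated visually about 3 weeks later versus untreated controls (100% = plants dead, 0% = like control).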

For a further test, the system named is Lolium rigidum. Briefly: Post-emergence herbicidal activity against LOLRI. To be noted: dosage 320 g/ha, rated about 3 weeks after treatment. The essentials: (§2)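 Greenhouse-grown plants sprayed post-emergence at the one-leaf stage, 2 to 3 weeks after sowing, with WP or EC formulations plus 0.5% additive at 600 l/ha water. Activity rated visually after about 3 weeks versus untreated controls (100% = plants dead, 0% = like control).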

Another test relates to Abutilon theophrasti. Briefly: Post-emergence herbicidal activity against ABUTH. To be noted: dosage 320 g/ha, rated about 3 weeks after treatment. A digest of the protocol: as §1
The subject of a further test is Pharbitis purpurea. Briefly: Post-emergence herbicidal activity against PHBPU. The conditions noted are these: dosage 320 g/ha, rated about 3 weeks after treatment. The essentials: as §2
For the next test, the system named is Polygonum convolvulus. Briefly: Post-emergence herbicidal activity against POLCO. The conditions noted are these: dosage 320 g/ha, rated about 3 weeks after treatment. The essentials:
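Greenhouse weeds in sandy loam were sprayed at the one-leaf stage, 2–3 weeks after sowing, with WP or EC formulations plus 0.5% additive at 600 l/ha water. About 3 weeks later, damage was rated visually against untreated controls, where 100% means plants dead and 0% means like control.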

The subject of test [2] is Stellaria media. The experiment in a line: Post-emergence herbicidal activity against STEME. The conditions noted are these: dosage 320 g/ha, rated about 3 weeks after treatment. A digest of the protocol:
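Greenhouse plants treated at one-leaf stage, 2–3 weeks after sowing, by spraying WP or EC formulations with 0.5% additive at 600 l/ha water. Visual rating about 3 weeks later versus untreated controls (100% = plants dead, 0% = like controls).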

Another test has as its system Hordeum murinum. Briefly: Post-emergence herbicidal activity against HORMU. The conditions noted are these: dosage 320 g/ha. A digest of the protocol: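 Greenhouse pot plants sprayed post-emergence at one-leaf stage (2-3 weeks after sowing) with WP or EC formulations, 0.5% additive, 600 l/ha water. Visual rating about 3 weeks later versus untreated controls: 100% = plants dead, 0% = like control.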

Molecules are shown by their SMILES.

Consider `C=C[C@]1(C(=O)N[C@H]2CO[C@@H](C(=O)OC)C2)CC(c2cc(F)cc(F)c2)=NO1` (single isomer, unassigned) [I-12], for which the pest or weed control at 80 g/ha amounted to 100% in the test with Avena fatua (Avena fatua, 504 h, read-out: Pre-emergence herbicidal activity against AVEVA in % (AVEFA)) and 100% with Stellaria media [1] (Stellaria media, 504 h). Besides, the “Post-emergence herbicidal activity against ALOMY in %” value with Alopecurus myosuroides is on record as 90%. For the same compound, the “Post-emergence herbicidal activity against LOLRI in %” value in the test with Lolium rigidum is given as 100%. Further, the “Post-emergence herbicidal activity against ABUTH in %” value in the test with Abutilon theophrasti is 90%. The “Post-emergence herbicidal activity against PHBPU in %” value in the test with Pharbitis purpurea was determined as 90%. In the test on Polygonum convolvulus, the “Post-emergence herbicidal activity against POLCO in %” value worked out at 90%. In the test with Stellaria media [2], the “Post-emergence herbicidal activity against STEME in %” value is 90%. Also, in the test on Hordeum murinum, the “Post-emergence herbicidal activity against HORMU in %” value is 90%.

In the case of `CCOC(=O)C1CC(NC(=O)C2(C)CC(c3cc(F)cc(F)c3)=NO2)CO1` (mixture of isomers) [I-43], in the test on Avena fatua, the “Pre-emergence herbicidal activity against AVEVA in % (AVEFA)” value is on record as 100%. In the test with Stellaria media [1], the “Pre-emergence herbicidal activity against STEME in %” value is reported as 100%. In the test on Alopecurus myosuroides, the “Post-emergence herbicidal activity against ALOMY in %” value is listed as 100%. For the same compound, the “Post-emergence herbicidal activity against LOLRI in %” value in the test with Lolium rigidum worked out at 100%. For the same compound, the “Post-emergence herbicidal activity against ABUTH in %” value in the test on Abutilon theophrasti amounted to 80%. In the test with Pharbitis purpurea, the “Post-emergence herbicidal activity against PHBPU in %” value is listed as 90%. In addition, the “Post-emergence herbicidal activity against POLCO in %” value in the test with Polygonum convolvulus worked out at 80%. Moreover, the “Post-emergence herbicidal activity against STEME in %” value in the test with Stellaria media [2] worked out at 100%. In addition, the “Post-emergence herbicidal activity against HORMU in %” value with Hordeum murinum was 100%.

For `C=C[C@]1(C(=O)N[C@H]2CO[C@@H](C(=O)OC)C2)CC(c2cc(F)cc(F)c2)=NO1` (single isomer, unassigned) [I-11], the “Pre-emergence herbicidal activity against AVEVA in % (AVEFA)” value with Avena fatua is reported as 100%. In the test with Stellaria media [1], the “Pre-emergence herbicidal activity against STEME in %” value is on record as 100%. The pest or weed control at 320 g/ha amounted to 90% in the test on Alopecurus myosuroides (Alopecurus myosuroides, 504 h); 100% in the test with Lolium rigidum (Lolium rigidum, 504 h); 90% with Abutilon theophrasti (Abutilon theophrasti, 504 h); 90% in the test with Pharbitis purpurea (Ipomoea purpurea, 504 h); 90% with Polygonum convolvulus (Fallopia convolvulus, 504 h); 90% in the test with Stellaria media [2] (Stellaria media, 504 h). For the same compound, in the test on Hordeum murinum (Hordeum murinum, 504 h), the pest or weed control at 320 g/ha came out at 100%.

In the case of `COC(=O)C1CC(NC(=O)C2(C)CC(c3cc(F)cc(F)c3)=NO2)CO1` (mixture of isomers) [I-48], the “Pre-emergence herbicidal activity against AVEVA in % (AVEFA)” value in the test with Avena fatua is 100%. For the same compound, the “Pre-emergence herbicidal activity against STEME in %” value with Stellaria media [1] is 100%. Besides, the “Post-emergence herbicidal activity against ALOMY in %” value with Alopecurus myosuroides worked out at 90%. In the test with Lolium rigidum, the “Post-emergence herbicidal activity against LOLRI in %” value is given as 90%. In the test on Abutilon theophrasti, the “Post-emergence herbicidal activity against ABUTH in %” value is on record as 80%. In addition, in the test with Pharbitis purpurea, the “Post-emergence herbicidal activity against PHBPU in %” value was 80%. The “Post-emergence herbicidal activity against POLCO in %” value with Polygonum convolvulus was determined as 80%. Moreover, in the test with Stellaria media [2], the “Post-emergence herbicidal activity against STEME in %” value was 90%. Further, in the test on Hordeum murinum, the “Post-emergence herbicidal activity against HORMU in %” value was 90%.
